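1) Cells in 96-well plates. 2) Compound, 48 h, 5 concentrations. 3) Linear interpolation between surrounding doses. 4) Unreached endpoint = highest concentration. Abbreviation: GI50, concentration required for 50% inhibition of growth.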 Activity calls are given as the source filed them. No stated cut-off is given here; in the data, active = GI50 up to about 1.1 µM and inactive = higher.
Assays:
Test in all cases: inhibition of tumour cell growth, NCI panel, 48 h
[1] = test system: 786-0
[2] = test system: A498
[3] = test system: A549
[4] = test system: ACHN
[5] = test system: BT-549
[6] = test system: CAKI-1
[7] = test system: CCRF-CEM
[8] = test system: COLO 205
[9] = test system: DU-145
[10] = test system: EKVX
[11] = test system: HCT-116
[12] = test system: HCT-15
[13] = test system: HL-60
[14] = test system: HOP-62
[15] = test system: HOP-92
[16] = test system: HT-29
[17] = test system: Hs-578T
[18] = test system: IGROV-1
[19] = test system: K562
[20] = test system: LOX IMVI
[21] = test system: M14
[22] = test system: MCF7
[23] = test system: MDA-MB-231
[24] = test system: MDA-MB-435
[25] = test system: MDA-N
[26] = test system: MOLT-4
[27] = test system: Malme-3M
[28] = test system: NCI-H226
[29] = test system: NCI-H23
[30] = test system: NCI-H460
[31] = test system: NCI-H522
[32] = test system: NCI/ADR-RES
[33] = test system: OVCAR-3
[34] = test system: OVCAR-4
[35] = test system: OVCAR-5
[36] = test system: OVCAR-8
[37] = test system: PC-3
[38] = test system: RPMI-8226
[39] = test system: RXF 393
[40] = test system: SF-268
[41] = test system: SF-295
[42] = test system: SF-539
[43] = test system: SK-MEL-28
[44] = test system: SK-MEL-2
[45] = test system: SK-MEL-5
[46] = test system: SK-OV-3
[47] = test system: SN12C
[48] = test system: SNB-19
[49] = test system: SNB-75
[50] = test system: SR
[51] = test system: SW-620
[52] = test system: T47D
[53] = test system: TK-10
[54] = test system: U-251
[55] = test system: UACC-257
[56] = test system: UACC-62
[57] = test system: UO-31

Which results are given for `CCOc1cc(-c2nc3ccccn3c2/N=C/c2cc(Br)ccc2O)ccc1O`?
GI50 [1]: 25.1 µM (inactive); GI50 [2]: 31.6 µM (inactive); GI50 [3]: 37.9 µM (inactive); GI50 [4]: 47.5 µM (inactive); GI50 [5]: 29.6 µM (inactive); GI50 [6]: 67.1 µM (inactive); GI50 [7]: > 100 µM (inactive); GI50 [8]: > 100 µM (inactive); GI50 [9]: 12.5 µM (inactive); GI50 [10]: 23 µM (inactive); GI50 [11]: 30.8 µM (inactive); GI50 [12]: 8.51 µM; GI50 [13]: 15 µM (inactive); GI50 [14]: 20.3 µM (inactive); GI50 [15]: 21.1 µM (inactive); GI50 [16]: 42.1 µM (inactive); GI50 [17]: 61.4 µM (inactive); GI50 [18]: 20.6 µM (inactive); GI50 [19]: 24.2 µM (inactive); GI50 [20]: 23.2 µM (inactive); GI50 [21]: 36.1 µM (inactive); GI50 [22]: 13.9 µM (inactive); GI50 [23]: 30.5 µM (inactive); GI50 [24]: 66.8 µM (inactive); GI50 [25]: 46.1 µM (inactive); GI50 [26]: 45.7 µM (inactive); GI50 [27]: 41.1 µM (inactive); GI50 [28]: 93.3 µM (inactive); GI50 [29]: 39.8 µM (inactive); GI50 [30]: 58.3 µM (inactive); GI50 [31]: 35.9 µM (inactive); GI50 [32]: 27.7 µM (inactive); GI50 [33]: 9.29 µM (inactive); GI50 [34]: 14.1 µM (inactive); GI50 [35]: 73.5 µM (inactive); GI50 [36]: 21.2 µM (inactive); GI50 [37]: 18.8 µM (inactive); GI50 [38]: 26.5 µM (inactive); GI50 [39]: 16 µM (inactive); GI50 [40]: 19.1 µM (inactive); GI50 [41]: 58.2 µM (inactive); GI50 [42]: 29.6 µM (inactive); GI50 [43]: > 100 µM (inactive); GI50 [44]: 46.1 µM (inactive); GI50 [45]: 30.3 µM (inactive); GI50 [46]: 29.2 µM (inactive); GI50 [47]: 31.3 µM (inactive); GI50 [48]: 21.3 µM (inactive); GI50 [49]: 5.62 µM (inactive); GI50 [50]: 35.6 µM (inactive); GI50 [51]: 65 µM (inactive); GI50 [52]: 2.37 µM (inactive); GI50 [53]: 21.1 µM (inactive); GI50 [54]: 17.5 µM (inactive); GI50 [55]: 18.1 µM (inactive); GI50 [56]: 23.9 µM (inactive); GI50 [57]: 27 µM (inactive)

— ChEMBL document CHEMBL1201862, “PubChem BioAssay data set” (2004)
